Assays:
[1] = system: CT26 cell line; assay: MTT cytotoxic/antiproliferative activity, 72 h; assay type: cell-based, murine; settings: Mus musculus
[2] = system: CT26 and NCI-H2228 cells; assay: Extracellular HMGB1 (ELISA); assay type: cell-based; settings: IC50 concentrations, 24 h
Procedure: The amount of HMGB1 in the medium was determined using an enzyme-linked immunosorbent assay (ELISA).
CT26 and NCI-H2228 cells were seeded in 48-well plates at a density of 5 × 10^4 cells/well and grown overnight. […] Aliquots of the supernatants were then withdrawn and processed using the HMGB1 Express ELISA kit (TECAN) according to the manufacturer’s instructions. The final absorbance, proportional to the HMGB1 amount, was read at 420 nm using a multimode SPARK reader (TECAN).

[3] = system: A549; assay: MTT cytotoxic/antiproliferative activity, 72 h; assay type: cell-based, human; settings: Homo sapiens; A549, MTT, 72 h
[4] = system: NCI-H2228; assay: MTT cytotoxic/antiproliferative activity, 72 h; assay type: cell-based, human; settings: Homo sapiens; NCI-H2228, MTT, 72 h
[5] = system: U87-MG; assay: MTT cytotoxic/antiproliferative activity, 72 h; assay type: cell-based, human; settings: Homo sapiens, U-87 MG, MTT, 72 h
Procedure: (§1) A panel of six cancer cell lines was used to evaluate the cytotoxic potential of the investigated compounds.
(§2) Cytotoxicity in hepatocyte-like cells (HLC). STEMdiff Hepatocyte Kit was used to generate HLC from human pluripotent stem cells. Cytotoxicity of several of the tested compounds in HLC was evaluated using the sulphorhodamine B assay.

[6] = system: HCT116; assay: MTT cytotoxic/antiproliferative activity, 72 h; assay type: cell-based, human; settings: Homo sapiens, HCT-116; HCT116, MTT, 72 h
[7] = system: RD; assay: MTT cytotoxic/antiproliferative activity, 72 h; assay type: cell-based, human; settings: Homo sapiens, MTT, 72 h
[8] = system: MDA-MB-231; assay: MTT cytotoxic/antiproliferative activity, 72 h; assay type: cell-based, human; settings: Homo sapiens; MDA-MB-231, MTT, 72 h
[9] = system: IMR-90; assay: MTT cytotoxicity in noncancerous cells, 72 h; assay type: cell-based, human; settings: Homo sapiens, IMR-90, MTT
Procedure: (§3) Growth inhibition activity in cancer cell lines was compared with the activity to inhibit the proliferation of normal (noncancerous) cells, namely MRC-5, IMR-90, hTERT-HPNE, and MCF10A cells. Selectivity indexes (SI) were calculated as (IC50 in noncancerous cells)/(average IC50 in cancer cells). […] We further assessed the toxicity of several of the compounds in hepatocyte-like cells (HLC) generated from human pluripotent cells.
as §2

[10] = system: MCF10A; assay: MTT cytotoxicity in noncancerous cells, 72 h; assay type: cell-based, human; settings: Homo sapiens, MCF-10A
Procedure: as §3, §2

[11] = system: MRC-5; assay: MTT cytotoxicity in noncancerous cells, 72 h; assay type: cell-based, human; settings: Homo sapiens, MRC5, MRC-5, MTT
Procedure: as §3, §2

[12] = system: hTERT-HPNE; assay: MTT cytotoxicity in noncancerous cells, 72 h; assay type: cell-based, human; settings: Homo sapiens
Procedure: as §3, §2

[13] = system: CHOK1; assay: MTT cytotoxicity in NER-proficient cells, 72 h; assay type: cell-based, Chinese hamster; settings: Cricetulus griseus, CHO-K1
Source text: (§4) The cytotoxicity assay was also employed to determine whether DNA damage might be involved in the mechanism of action of the tested compounds. The Chinese hamster ovary MMC2 cell line harbors the ERCC3/XPB mutation, which renders it deficient in nucleotide excision repair (NER), whereas the parent line CHOK1 is proficient in this repair process. Thus, the MMC2 line is often more sensitive to agents causing DNA damage, especially NER-reparable DNA damage, than CHOK1. […] Phosphorylation of H2AX is a commonly used marker of DNA damage.
as §2

[14] = system: MMC2; assay: MTT cytotoxicity in NER-deficient cells, 72 h; assay type: cell-based, Chinese hamster
Source text: as §4, with “damage. […]” for “damage.”

[15] = system: panel of six cancer cell lines; assay: MTT, panel of six cancer cell lines (average, ranges); assay type: cell-based, human; settings: Homo sapiens; average over six cancer cell lines; read-out: av cancer (average IC50 in cancer cells)
Procedure: as §1, §2

[16] = system: normal (noncancerous) cells MRC-5, IMR-90, hTERT-HPNE, MCF10A; assay: MTT, noncancerous cell lines (average, selectivity index); assay type: cell-based, human
Procedure: as §3, with “pluripotent cells. […]” for “pluripotent cells.”

[17] = Cytotoxicity in hepatocyte-like cells, sulphorhodamine B assay; assay type: cell-based; settings: hepatocyte-like cells from human pluripotent cells
Procedure: as §3, §2

[18] = system: A549 spheroids; assay: Cytotoxicity in 3D spheroids, CellTiter-Glo 3D; assay type: cell-based, human; settings: Homo sapiens, A549 3D spheroids, 96 h
Procedure: (§5) In the 3D structure, the gradients of gases, nutrients, and therapeutics play a role in the final cytotoxicity of a compound.
(§6) A549 and NCI-H2228 cells were seeded in ultralow attachment, U-shape plates (Corning) at a density of 800 cells/well in the tumorsphere medium consisting of DMEM/F12 medium (Sigma), fibroblast growth factor (20 ng/mL; Sigma), epidermal growth factor 2 (10 ng mL^–1; Sigma), B27 supplement (1×; Gibco), bovine serum albumin, bovine serum albumin (BSA) (1.5 mg mL^–1; Sigma). […] CellTiter-Glo 3D viability assay was used for the experiment evaluation following the manufacturer’s instructions. The bioluminescence signal, proportional to the number of living cells, was measured using the luminescence reader SPARK, and IC50 values were calculated.

[19] = system: NCI-H2228 spheroids; assay: Cytotoxicity in 3D spheroids, CellTiter-Glo 3D; assay type: cell-based, human; settings: Homo sapiens, NCI-H2228 3D spheroids, 96 h
Procedure: as §5, §6

[20] = biological target: T1, ALK (Homo sapiens, UniProt Q9HC35+Q9UM73); assay: Western blot of ALK phosphorylation state; assay type: cell-based; settings: NCI-H2228 lysates, IC50 concentrations, 24 h
T1 construct: Western blot detection of the ALK phosphorylation state in lysates of NCI-H2228 cells exposed to the tested compounds; endogenous in cells; host or cells: NCI-H2228
T1 sequence (Q9HC35+Q9UM73 fused): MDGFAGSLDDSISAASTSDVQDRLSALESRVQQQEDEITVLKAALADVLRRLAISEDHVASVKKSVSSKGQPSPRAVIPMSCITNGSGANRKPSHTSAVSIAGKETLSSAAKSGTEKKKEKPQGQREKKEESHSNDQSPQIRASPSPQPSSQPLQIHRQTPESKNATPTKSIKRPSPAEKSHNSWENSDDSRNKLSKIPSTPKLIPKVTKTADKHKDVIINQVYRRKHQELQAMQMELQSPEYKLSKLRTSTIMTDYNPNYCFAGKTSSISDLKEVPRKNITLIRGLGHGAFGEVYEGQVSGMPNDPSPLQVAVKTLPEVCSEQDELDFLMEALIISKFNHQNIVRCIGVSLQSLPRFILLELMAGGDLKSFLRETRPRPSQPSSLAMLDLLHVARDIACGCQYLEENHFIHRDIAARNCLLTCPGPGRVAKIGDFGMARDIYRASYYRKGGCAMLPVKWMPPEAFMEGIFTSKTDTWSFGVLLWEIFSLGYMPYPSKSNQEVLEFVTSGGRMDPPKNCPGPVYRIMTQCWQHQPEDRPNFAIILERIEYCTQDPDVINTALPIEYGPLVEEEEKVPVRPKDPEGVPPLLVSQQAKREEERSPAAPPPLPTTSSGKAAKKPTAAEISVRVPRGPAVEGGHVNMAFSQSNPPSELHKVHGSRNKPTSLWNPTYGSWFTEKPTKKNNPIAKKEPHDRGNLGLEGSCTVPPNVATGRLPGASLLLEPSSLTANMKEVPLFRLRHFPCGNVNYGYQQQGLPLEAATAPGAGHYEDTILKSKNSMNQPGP
Procedure: (§7) Whereas the signals of pALK and pMET are decreased in the presence of the tested compounds, the overall amount of ALK and MET is not markedly changed.
(§8) NCI-H2228 cells were seeded in 6-well plates at a density of 2 × 10^5 cells/well and incubated overnight. […] The cells were then harvested and lysed using RIPA lysis buffer supplemented with protease and phosphatase inhibitors as recommended by the manufacturer. Protein extracts were resolved with SDS-PAGE, transferred to a PVDF membrane, and the respective proteins were detected with specific antibodies (anti-phosphoALK, anti-ALK, anti-phosphoMET, anti-MET, and anti-GADPH) and HRP-conjugated secondary antibodies. The signals were obtained with SignalFire ECL Reagent and recorded with an Amersham680 reader.

[21] = biological target: T2, MET (Homo sapiens, UniProt P08581); assay: Western blot of MET phosphorylation state; assay type: cell-based; settings: NCI-H2228 lysates, IC50 concentrations, 24 h
T2 construct: Western blot analysis of the phosphorylation state of ALK and MET; endogenous in cells; host or cells: NCI-H2228
T2 sequence (P08581 25-1390): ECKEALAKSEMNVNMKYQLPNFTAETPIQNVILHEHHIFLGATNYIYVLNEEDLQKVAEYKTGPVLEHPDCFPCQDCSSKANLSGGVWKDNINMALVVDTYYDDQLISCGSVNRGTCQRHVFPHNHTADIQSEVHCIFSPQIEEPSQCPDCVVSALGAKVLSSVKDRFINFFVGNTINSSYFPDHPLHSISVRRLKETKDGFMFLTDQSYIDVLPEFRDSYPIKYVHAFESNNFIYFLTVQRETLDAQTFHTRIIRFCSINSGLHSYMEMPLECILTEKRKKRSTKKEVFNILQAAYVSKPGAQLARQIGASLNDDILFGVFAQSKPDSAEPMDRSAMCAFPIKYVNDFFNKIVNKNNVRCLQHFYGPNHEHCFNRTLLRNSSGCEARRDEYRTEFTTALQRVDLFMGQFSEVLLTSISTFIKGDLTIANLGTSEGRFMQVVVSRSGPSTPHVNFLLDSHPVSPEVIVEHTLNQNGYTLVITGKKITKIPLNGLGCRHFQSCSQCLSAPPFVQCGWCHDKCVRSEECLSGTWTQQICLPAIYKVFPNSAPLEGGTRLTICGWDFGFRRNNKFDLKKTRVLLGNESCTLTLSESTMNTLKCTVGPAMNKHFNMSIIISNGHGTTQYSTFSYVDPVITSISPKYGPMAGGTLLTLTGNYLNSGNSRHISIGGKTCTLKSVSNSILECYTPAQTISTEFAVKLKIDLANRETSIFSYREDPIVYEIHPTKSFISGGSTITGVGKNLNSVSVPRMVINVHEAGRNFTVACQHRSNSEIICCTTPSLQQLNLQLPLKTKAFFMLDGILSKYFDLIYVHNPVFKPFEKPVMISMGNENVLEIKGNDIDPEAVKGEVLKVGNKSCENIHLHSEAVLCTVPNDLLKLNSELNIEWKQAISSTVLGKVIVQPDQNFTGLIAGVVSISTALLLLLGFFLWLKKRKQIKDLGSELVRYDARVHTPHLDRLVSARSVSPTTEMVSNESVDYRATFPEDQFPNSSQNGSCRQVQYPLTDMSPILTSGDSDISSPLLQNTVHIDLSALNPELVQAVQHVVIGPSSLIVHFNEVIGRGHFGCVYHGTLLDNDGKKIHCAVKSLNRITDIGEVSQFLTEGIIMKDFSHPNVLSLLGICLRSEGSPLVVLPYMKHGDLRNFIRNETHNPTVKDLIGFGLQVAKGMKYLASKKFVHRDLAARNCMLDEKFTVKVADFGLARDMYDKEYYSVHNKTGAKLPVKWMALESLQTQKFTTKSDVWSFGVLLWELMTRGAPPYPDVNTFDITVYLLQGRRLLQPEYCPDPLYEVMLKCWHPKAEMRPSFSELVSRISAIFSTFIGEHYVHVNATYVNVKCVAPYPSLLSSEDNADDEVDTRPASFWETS
Procedure: as §7, §8

For `COc1cccc2c1C(=O)c1c(O)c3c(c(O)c1C2=O)C[C@@](O)(C(=O)CO)C[C@@H]3O[C@H]1C[C@H](N)[C@H](O)[C@H](C)O1` [DOX, doxorubicin], the IC50 [1] was 2100 ± 300 nM and the “HMGB1 externalization relative to nontreated control” value [2] was “highest increase”.

With `Cc1cc(Nc2ncc(Cl)c(Nc3ccccc3S(=O)(=O)C(C)C)n2)c(OC(C)C)cc1C1CCNCC1` [compound 5, ceritinib] the IC50 [3] was 900 ± 200 nM, the IC50 [4] was 510 ± 40 nM and the IC50 [5] was 1100 ± 1000 nM. It also gave an IC50 [6] of 900 ± 200 nM, an IC50 [7] of 1500 ± 300 nM and an IC50 [8] of 1400 ± 900 nM. It also gave an IC50 [9] of 3700 ± 400 nM, an IC50 [10] of 3400 ± 900 nM and an IC50 [11] of 2200 ± 500 nM. For the same molecule, the IC50 [12] was 4100 ± 200 nM, the IC50 [13] was 1400 ± 600 nM and the IC50 ([14]; Cricetulus griseus, MMC2 (NER deficient), MTT, 72 h) was 1300 ± 300 nM. For the same molecule, the “Index F” value ([14]; IC50(CHOK1)/IC50(MMC2)) was 1.08, the IC50 [15] was 1100 nM and the IC50 ([16]; Homo sapiens, average over MRC-5, IMR-90, hTERT-HPNE, MCF10A, read-out: av norm (average IC50 in noncancerous cells)) was 3400 nM. For the same molecule, the “SI, selectivity index” value ([16]; IC50(normal cells)/averageIC50(cancer cells)) was 3.0, the IC50 [17] was 8000 ± 3000 nM and the IC50 [18] was 2300 ± 800 nM. The IC50 [19] was 750 ± 90 nM, the IC50 [1] was 1200 ± 300 nM and the “phosphorylation of ALK” value [20] was “inhibit the phosphorylation”. For the same molecule, the “phosphorylation of MET” value [21] was “inhibit the phosphorylation”.

From PMC12670396, “Crizotinib- or Ceritinib-Conjugated Platinum(IV) Prodrugs As Potent Multiaction Agents Inducing Antiproliferative Effects in 2D and 3D Cancer Cell Models” (Journal of Medicinal Chemistry, 2025)
